Measurements published in ChEMBL document CHEMBL4765282, “Design, synthesis and biological evaluation of 1H-pyrazolo [3,4-d]pyrimidine derivatives as PAK1 inhibitors that trigger apoptosis, ER stress and anti-migration effect in MDA-MB-231 cells” (Eur J Med Chem, 2020).
Activity calls are given as the source filed them.

Columns and labels:
[1] = target: T1, Serine/threonine-protein kinase PAK 1 (Homo sapiens, UniProt Q13153); assay: Inhibition of PAK1 phosphorylation at Thr212 residues in human MDA-MB-231 cells at 10 to 40 uM measured after 24 hrs by Western blot analysis; format: cell-based; settings: dose 10-40 µM
MDA-MB-231 [2] = assay: Upregulation of PERK expression in human MDA-MB-231 cells transfected with si-PAK1 at 10 uM measured after 24 hrs by Western blot analysis; format: functional, cell-based
MDA-MB-231 [3] = assay: Induction of apoptosis in human MDA-MB-231 cells assessed as necrotic cells at 10 uM measured after 24 hrs by Annexin V-FITC/propidium iodide staining based flow cytometry (reference value: 0.16%); format: functional
MDA-MB-231 [4] = assay: Inhibition of PI3K/AKT/mTOR signaling in human MDA-MB-231 cells assessed as reduction in AKT phosphorylation at 10 to 40 uM after 24 hrs by Western blot analysis; format: cell-based; settings: dose 10-40 µM
[5] = Effect on KLF15 gene expression in human MDA-MB-231 cells by Trizol reagent based RNA sequencing analysis relative to control; format: functional
MDA-MB-231 [6] = assay: Down regulation of PAK1 expression in human MDA-MB-231 cells at 20 uM measured after 24 hrs by immunofluorescence analysis; format: functional, cell-based
MDA-MB-231 [7] = assay: Induction of apoptosis in human MDA-MB-231 cells assessed as necrotic cells at 40 uM measured after 24 hrs by Annexin V-FITC/propidium iodide staining based flow cytometry (reference value: 0.16%); format: functional
MDA-MB-231 [8] = assay: Upregulation of phosphorylated PERK Thr980 expression in human MDA-MB-231 cells at 10 to 40 uM measured after 24 hrs by Western blot analysis; format: functional, cell-based; settings: dose 10-40 µM
MDA-MB-231 [9] = assay: Induction of apoptosis in human MDA-MB-231 cells assessed as increase in early apoptosis measured after 24 hrs by Annexin V-FITC/propidium iodide staining based flow cytometry; format: functional, cell-based
MDA-MB-231 [10] = assay: Induction of apoptosis in human MDA-MB-231 cells assessed as down regulation of Bcl-2 expression at 10 to 40 uM measured after 24 hrs by Western blot analysis; format: functional, cell-based; settings: dose 10-40 µM
MDA-MB-231 [11] = assay: Induction of apoptosis in human MDA-MB-231 cells assessed as upregulation of Bax expression at 10 to 40 uM measured after 24 hrs by Western blot analysis; format: functional, cell-based; settings: dose 10-40 µM
[12] = Effect on CDHR4 gene expression in human MDA-MB-231 cells by Trizol reagent based RNA sequencing analysis relative to control; format: functional; settings: dose 10-40 µM; time 24 hrs
MDA-MB-231 [13] = assay: Upregulation of PERK expression in human MDA-MB-231 cells at 10 to 40 uM measured after 24 hrs by Western blot analysis; format: functional, cell-based; settings: dose 10-40 µM
[14] = Effect on MIA2 gene expression in human MDA-MB-231 cells by Trizol reagent based RNA sequencing analysis relative to control; format: functional
[15] = Effect on CHAC1 gene expression in human MDA-MB-231 cells by Trizol reagent based RNA sequencing analysis relative to control; format: functional
MDA-MB-231 [16] = assay: Induction of apoptosis in human MDA-MB-231 cells assessed as early apoptotic cells at 10 uM measured after 24 hrs by Annexin V-FITC/propidium iodide staining based flow cytometry (reference value: 0.81%); format: functional
MDA-MB-231 [17] = assay: Induction of apoptosis in human MDA-MB-231 cells assessed as viable cells at 20 uM measured after 24 hrs by Annexin V-FITC/propidium iodide staining based flow cytometry (reference value: 98.46%); format: functional; settings: read-out: Activity
[18] = Effect on DDIT4 gene expression in human MDA-MB-231 cells by Trizol reagent based RNA sequencing analysis relative to control; format: functional
[19] = Effect on GDF15 gene expression in human MDA-MB-231 cells by Trizol reagent based RNA sequencing analysis relative to control; format: functional
[20] = target: T1, Serine/threonine-protein kinase PAK 1; assay: Inhibition of PAK1 in human MDA-MB-231 cells assessed as reduction in ERK1/2 phosphorylation at Thr202/Tyr204 residues at 10 to 40 uM measured after 24 hrs by Western blot analysis; format: cell-based; settings: dose 10-40 µM
[21] = target: Mitogen-activated protein kinase 8/9 (Homo sapiens) (UniProt P45983+P45984); assay: Inhibition of JNK1/2 in human MDA-MB-231 cells assessed as reduction in c-JUN phosphorylation at Ser63 residues at 10 to 40 uM after 24 hrs by Western blot analysis; format: cell-based; settings: dose 10-40 µM
[22] = Effect on CSTA gene expression in human MDA-MB-231 cells by Trizol reagent based RNA sequencing analysis relative to control; format: functional
[23] = Effect on ASNS gene expression in human MDA-MB-231 cells by Trizol reagent based RNA sequencing analysis relative to control; format: functional
MDA-MB-231 [24] = assay: Induction of apoptosis in human MDA-MB-231 cells assessed as early apoptotic cells at 20 uM measured after 24 hrs by Annexin V-FITC/propidium iodide staining based flow cytometry (reference value: 0.81%); format: functional
[25] = Effect on GARS gene expression in human MDA-MB-231 cells by Trizol reagent based RNA sequencing analysis relative to control; format: functional
[26] = Effect on CXCL2 gene expression in human MDA-MB-231 cells by Trizol reagent based RNA sequencing analysis relative to control; format: functional
[27] = Upregulation of ATF4 gene expression in human MDA-MB-231 cells by Trizol reagent based RNA sequencing analysis relative to control; format: functional
MDA-MB-231 [28] = assay: Inhibition of AKT phosphorylation at Ser473 residue in human MDA-MB-231 cells at 20 uM measured after 24 hrs by immunofluorescence analysis; format: cell-based
[29] = Effect on HERPUD1 gene expression in human MDA-MB-231 cells by Trizol reagent based RNA sequencing analysis relative to control; format: functional
MDA-MB-231 [30] = assay: Induction of apoptosis in human MDA-MB-231 cells assessed as viable cells at 10 uM measured after 24 hrs by Annexin V-FITC/propidium iodide staining based flow cytometry (reference value: 98.46%); format: functional; settings: read-out: Activity
[31] = Effect on KLHDC7B gene expression in human MDA-MB-231 cells by Trizol reagent based RNA sequencing analysis relative to control; format: functional
MDA-MB-231 [32] = assay: Induction of apoptosis in human MDA-MB-231 cells assessed as increase in PARP cleavage at 10 to 40 uM measured after 24 hrs by Western blot analysis; format: functional, cell-based; settings: dose 10-40 µM
[33] = target: Serine/threonine-protein kinase PAK 2 (Homo sapiens, UniProt Q13177); assay: Inhibition of PAK2 (unknown origin) […] measured after 40 mins by ADP-glo kinase assay
[34] = Effect on MMP3 gene expression in human MDA-MB-231 cells by Trizol reagent based RNA sequencing analysis relative to control; format: functional
MDA-MB-231 [35] = assay: Up regulation of FOXO3a expression in human MDA-MB-231 cells at 10 to 40 uM measured after 24 hrs by Western blot analysis; format: functional, cell-based; settings: dose 10-40 µM
[36] = Effect on DDIT3 gene expression in human MDA-MB-231 cells by Trizol reagent based RNA sequencing analysis relative to control; format: functional
[37] = Effect on GRID1 gene expression in human MDA-MB-231 cells by Trizol reagent based RNA sequencing analysis relative to control; format: functional

T1 sequence (Q13153 whole entry): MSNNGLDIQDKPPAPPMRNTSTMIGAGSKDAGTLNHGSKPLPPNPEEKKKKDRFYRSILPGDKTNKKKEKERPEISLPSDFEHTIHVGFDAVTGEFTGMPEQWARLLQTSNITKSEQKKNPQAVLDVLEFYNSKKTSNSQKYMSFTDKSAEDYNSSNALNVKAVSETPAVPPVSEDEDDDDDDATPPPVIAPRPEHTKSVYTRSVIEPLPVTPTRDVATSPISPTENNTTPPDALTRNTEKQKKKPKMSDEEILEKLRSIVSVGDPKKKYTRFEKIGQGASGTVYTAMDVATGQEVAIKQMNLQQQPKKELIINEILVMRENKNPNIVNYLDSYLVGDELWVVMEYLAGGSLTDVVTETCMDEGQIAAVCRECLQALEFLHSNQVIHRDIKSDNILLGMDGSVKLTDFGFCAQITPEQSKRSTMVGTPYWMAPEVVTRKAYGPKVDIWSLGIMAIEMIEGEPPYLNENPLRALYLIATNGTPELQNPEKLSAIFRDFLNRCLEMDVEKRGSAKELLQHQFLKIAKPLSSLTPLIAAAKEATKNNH
Sequence of Mitogen-activated protein kinase 8/9 (Homo sapiens) (P45983 whole entry, looked up): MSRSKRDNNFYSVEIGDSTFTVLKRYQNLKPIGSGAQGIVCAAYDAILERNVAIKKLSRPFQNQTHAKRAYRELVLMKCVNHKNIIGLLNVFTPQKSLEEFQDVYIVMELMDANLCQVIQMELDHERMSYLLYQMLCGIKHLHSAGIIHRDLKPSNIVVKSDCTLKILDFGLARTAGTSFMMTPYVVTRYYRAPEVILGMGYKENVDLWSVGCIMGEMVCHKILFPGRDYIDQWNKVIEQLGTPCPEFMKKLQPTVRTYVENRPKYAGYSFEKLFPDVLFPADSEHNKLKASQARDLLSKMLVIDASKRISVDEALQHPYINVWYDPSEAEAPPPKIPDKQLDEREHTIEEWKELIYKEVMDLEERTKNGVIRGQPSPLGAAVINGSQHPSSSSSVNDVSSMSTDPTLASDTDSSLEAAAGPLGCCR
Sequence of Mitogen-activated protein kinase 8/9 (Homo sapiens) (P45984 whole entry, looked up): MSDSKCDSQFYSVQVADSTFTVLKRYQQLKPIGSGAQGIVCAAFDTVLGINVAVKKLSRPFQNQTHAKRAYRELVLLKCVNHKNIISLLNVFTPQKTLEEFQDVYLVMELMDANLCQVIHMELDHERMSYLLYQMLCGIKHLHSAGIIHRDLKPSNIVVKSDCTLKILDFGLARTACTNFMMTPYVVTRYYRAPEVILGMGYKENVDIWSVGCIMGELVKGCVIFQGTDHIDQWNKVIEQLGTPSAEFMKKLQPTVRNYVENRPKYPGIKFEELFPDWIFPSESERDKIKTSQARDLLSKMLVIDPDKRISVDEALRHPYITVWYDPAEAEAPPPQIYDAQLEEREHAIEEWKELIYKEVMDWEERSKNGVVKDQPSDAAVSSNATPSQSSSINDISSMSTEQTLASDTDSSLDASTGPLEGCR
Sequence of Serine/threonine-protein kinase PAK 2 (Q13177 whole entry): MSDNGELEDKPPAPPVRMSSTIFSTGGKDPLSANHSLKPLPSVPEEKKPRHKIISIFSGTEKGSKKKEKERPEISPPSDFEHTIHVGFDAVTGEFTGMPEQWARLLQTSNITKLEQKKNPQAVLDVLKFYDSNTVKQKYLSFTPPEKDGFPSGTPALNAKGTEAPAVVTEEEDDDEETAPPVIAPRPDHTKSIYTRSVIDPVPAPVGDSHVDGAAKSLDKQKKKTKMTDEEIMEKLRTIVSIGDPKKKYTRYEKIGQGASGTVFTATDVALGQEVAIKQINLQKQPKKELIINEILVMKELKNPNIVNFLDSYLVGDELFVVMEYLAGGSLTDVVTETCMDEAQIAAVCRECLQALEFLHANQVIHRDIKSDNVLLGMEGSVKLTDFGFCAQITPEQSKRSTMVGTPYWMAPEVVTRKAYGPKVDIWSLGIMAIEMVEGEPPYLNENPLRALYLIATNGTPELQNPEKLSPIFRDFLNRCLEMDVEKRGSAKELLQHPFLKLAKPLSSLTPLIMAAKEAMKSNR

O=C(Nc1cc(C(F)(F)F)cc(C(F)(F)F)c1)NC1CCN(c2ncnc3[nH]ncc23)CC1
1.64%: Activity (MDA-MB-231 [3])
88%: viability at 10 µM (MDA-MB-231 [30])
15.2%: Activity (MDA-MB-231 [24])
7.16%: Activity (MDA-MB-231 [16])
active: inhibition [1] | inhibition (MDA-MB-231 [4]) | Activity (MDA-MB-231 [6]) | Activity (MDA-MB-231 [8]) | Activity (MDA-MB-231 [9]) Dose-dependent effect | Activity (MDA-MB-231 [10]) | Activity (MDA-MB-231 [11]) | Activity (MDA-MB-231 [13]) | inhibition [20] | inhibition [21] | inhibition (MDA-MB-231 [28]) | Activity (MDA-MB-231 [32]) | Activity (MDA-MB-231 [35])
77.3%: viability at 20 µM (MDA-MB-231 [17])
inactive: Activity (MDA-MB-231 [2])
>2: fold change (FC) [5] | fold change (FC) [12] | fold change (FC) [14] | fold change (FC) [15] | fold change (FC) [18] | fold change (FC) [19] | fold change (FC) [22] | fold change (FC) [23] | fold change (FC) [25] | fold change (FC) [26] | fold change (FC) [27] | fold change (FC) [29] | fold change (FC) [31] | fold change (FC) [34] | fold change (FC) [36] | fold change (FC) [37]
1.04 µM: IC50 [33]
0.91%: Activity (MDA-MB-231 [7])
